Reference: ChEMBL document CHEMBL5226294, “Natural bioeffective cyclooligopeptides from plant seeds of Annona genus” (Eur J Med Chem, 2021)
In brackets after ≈: the same amount, converted by molar mass. Where a SMILES comes first, the peptide text is derived from it. [ ]: non-standard residue; d: D form. Met(O) = CS(=O)CC[C@H](N)C(=O)O; Dab = NCC[C@H](N)C(=O)O

Experiments:
[1] = tested on: KB; experiment: Cytotoxicity against human KB cells assessed as reduction in cell viability; type: functional, cell-based
[2] = Cytotoxicity against mouse DLA cell assessed as reduction in cell viability incubated for 3 hrs by tryphan blue dye based assay; type: toxicity; settings: DLA cells
[3] = Cytotoxicity against mouse EAC cell assessed as reduction in cell viability incubated for 3 hrs by tryphan blue dye based assay; type: toxicity; settings: EAC (Ehrlich) cells
[4] = tested on: DU-145; experiment: Cytotoxicity against human DU-145 cells assessed as inhibition of cell growth incubated for 72 hrs by XTT assay; type: functional, cell-based; settings: DU-145, 72 h
[5] = tested on: Pseudomonas aeruginosa; experiment: Antibacterial activity against Pseudomonas aeruginosa assessed as inhibition of bacterial growth incubated for 18 hrs by disc diffusion method; type: functional
[6] = tested on: Klebsiella pneumoniae; experiment: Antibacterial activity against Klebsiella pneumoniae assessed as inhibition of bacterial growth incubated for 18 hrs by disc diffusion method; type: functional
[7] = tested on: Trichophyton mentagrophytes; experiment: Antifungal activity against Trichophyton mentagrophytes assessed as inhibition of fungal growth incubated for 48 hrs by serial plate dilution method; type: functional
[8] = tested on: Microsporum audouinii; experiment: Antifungal activity against Microsporum audouinii assessed as inhibition of fungal growth incubated for 48 hrs by serial plate dilution method; type: functional
[9] = tested on: KB; experiment: Cytotoxicity against human KB cells assessed as reduction in cell viability incubated for 3 days; type: functional, cell-based; settings: 72 h
[10] = tested on: Candida albicans; experiment: Antifungal activity against Candida albicans MUMC 29 assessed as increase in inhibition of fungal growth incubated for 48 hrs by disk diffusion method relative to griseofulvin; type: functional; set-up: scale not given: the % may be the effect or the level left
[11] = tested on: Escherichia coli; experiment: Antibacterial activity against Escherichia coli MUMC 106 assessed as inhibition of bacterial growth incubated for 18 hrs by disk diffusion method; type: functional
[12] = tested on: Escherichia coli; experiment: Antibacterial activity against Escherichia coli MUMC 106 assessed as increase in inhibition of bacterial growth incubated for 18 hrs by disk diffusion method relative to ciprofloxacin; type: functional; set-up: scale not given: the % may be the effect or the level left
[13] = tested on: Candida albicans; experiment: Antifungal activity against Candida albicans MUMC 29 assessed as inhibition of fungal growth incubated for 48 hrs by disk diffusion method; type: functional
[14] = tested on: Pseudomonas aeruginosa; experiment: Antibacterial activity against Pseudomonas aeruginosa MUMC 266 assessed as inhibition of bacterial growth incubated for 18 hrs by disk diffusion method; type: functional
[15] = tested on: Pseudomonas aeruginosa; experiment: Antibacterial activity against Pseudomonas aeruginosa MUMC 266 assessed as increase in inhibition of bacterial growth incubated for 18 hrs by disk diffusion method relative to ciprofloxacin; type: functional; set-up: scale not given: the % may be the effect or the level left
[16] = tested on: KB; experiment: Cytotoxicity against human KB cells assessed as inhibition of cell growth at 6.25 to 100 uM incubated for 72 hrs by MTT assay; type: functional; set-up: scale not given: the % may be the effect or the level left; settings: dose 6.25-100 µM
[17] = tested on: HL-60; experiment: Cytotoxicity against human HL-60 cells assessed as inhibition of cell growth at 6.25 to 100 uM incubated for 72 hrs by MTT assay; type: functional; set-up: scale not given: the % may be the effect or the level left; settings: dose 6.25-100 µM
[18] = tested on: Trichophyton mentagrophytes; experiment: Antimicrobial activity against Trichophyton mentagrophytes MUMC 665 assessed as inhibition of microbial growth by disk diffusion method; type: functional
[19] = Cytotoxicity against mouse DLA cell assessed as reduction in cell viability; type: toxicity, cell-based; settings: DLA cells
[20] = Cytotoxicity against mouse EAC cell assessed as reduction in cell viability; type: toxicity, cell-based; settings: EAC (Ehrlich) cells
[21] = tested on: Microsporum audouinii; experiment: Antimicrobial activity against Microsporum audouinii MUMC 545 assessed as inhibition of microbial growth by disk diffusion method; type: functional

CC[C@H](C)[C@@H]1NC(=O)[C@@H]2CCCN2C(=O)[C@H](CC(C)C)NC(=O)[C@H](CCSC)NC(=O)CNC(=O)[C@H]([C@@H](C)O)NC(=O)[C@H](CCC(N)=O)NC(=O)[C@@H]2CCCN2C1=O (cyclo(GMLPIPQT))
IC50 [1]: 0.6 µM

O=c1[nH]cc(F)c(=O)[nH]1 [FLUOROURACIL]
CC50 at 3 h [2]: 37.4 µM | CC50 at 3 h [3]: 37.4 µM

CC[C@H](C)[C@@H]1NC(=O)[C@H](C)NC(=O)[C@H](C(C)C)NC(=O)[C@H]([C@@H](C)O)NC(=O)CNC(=O)[C@H](Cc2ccc(O)cc2)NC(=O)[C@H](CO)NC(=O)[C@H](CCN)NC(=O)[C@@H]2CCCN2C1=O (cyclo(AIP[Dab]SYGTV))
IC50 [4]: 27.3 µM

CC(C)C[C@@H]1NC(=O)CNC(=O)[C@@H]2CCCN2C(=O)[C@H]([C@@H](C)O)NC(=O)[C@H](C(C)C)NC(=O)[C@H](C)NC(=O)[C@H](CC(N)=O)NC1=O
IC50 [1]: 0.97 µM

CC(C)C[C@@H]1NC(=O)CNC(=O)[C@@H]2CCCN2C(=O)[C@H](CC(N)=O)NC(=O)[C@H](C)NC(=O)[C@H](Cc2ccc(O)cc2)NC(=O)[C@@H]2CCCN2C1=O [CYCLOMONTANIN D] (cyclo(ANPGLPY))
MIC [5]: 6 µg/mL (≈ 8.42 µM) | MIC [6]: 6 µg/mL (≈ 8.42 µM) | MIC [7]: 6 µg/mL (≈ 8.42 µM) | MIC [8]: 6 µg/mL (≈ 8.42 µM)

CC(C)C[C@@H]1NC(=O)CNC(=O)[C@H](Cc2ccccc2)NC(=O)[C@H](Cc2ccc(O)cc2)NC(=O)[C@@H]2CCCN2C(=O)CNC1=O [Cherimolacyclopeptide E] (cyclo(FGLGPY))
IC50 [9]: 0.017 µM | Activity [10]: 25% | MIC [11]: 12.5 µg/mL (≈ 19.7 µM) | Activity [12]: 12% | MIC [13]: 6 µg/mL (≈ 9.45 µM) | MIC [14]: 6 µg/mL (≈ 9.45 µM) | Activity [15]: 12% | CC50 at 3 h [2]: 2.76 µM | CC50 at 3 h [3]: 4.96 µM

CC(C)C[C@@H]1NC(=O)[C@H](Cc2ccc(O)cc2)NC(=O)[C@@H]2CCCN2C(=O)[C@@H]2CCCN2C(=O)[C@H](C(C)C)NC(=O)CNC(=O)[C@@H]2CCCN2C1=O (cyclo(GVPPYLP))
Activity [16]: <30% | Activity [17]: <30%

CC[C@H](C)[C@@H]1NC(=O)CNC(=O)[C@H](CCSC)NC(=O)CNC(=O)[C@@H]2CCCN2C(=O)[C@H](CCSC)NC(=O)[C@@H]2CCCN2C(=O)[C@H](CC(C)C)NC(=O)[C@H](Cc2ccc(O)cc2)NC1=O (cyclo(GIYLPMPGM))
IC50 [9]: 0.06 µM

CC(C)C[C@@H]1NC(=O)CNC(=O)[C@@H]2CCCN2C(=O)[C@H]([C@@H](C)O)NC(=O)[C@H](C(C)C)NC(=O)[C@H](C)NC(=O)[C@H](CO)NC1=O
IC50 [4]: 54.9 µM

CC[C@H](C)[C@@H]1NC(=O)[C@@H]2CCCN2C(=O)[C@H](CC(C)C)NC(=O)[C@H](CC[S+](C)[O-])NC(=O)CNC(=O)[C@H]([C@@H](C)O)NC(=O)[C@H](CCC(N)=O)NC(=O)[C@@H]2CCCN2C1=O (stereo partly drawn) (cyclo(G[Met(O)]LPIPQT))
IC50 [1]: 45 µM

COc1cccc2c1C(=O)c1c(O)c3c(c(O)c1C2=O)C[C@@](O)(C(=O)CO)C[C@@H]3O[C@H]1C[C@H](N)[C@H](O)[C@H](C)O1 [DOXORUBICIN]
IC50 [4]: 1.1 µM | IC50 [1]: 0.02 µM

CC(C)C[C@@H]1NC(=O)[C@H](Cc2c[nH]c3ccccc23)NC(=O)[C@H](C)NC(=O)[C@H](CC(N)=O)NC(=O)[C@@H]2CCCN2C(=O)[C@H]([C@@H](C)O)NC(=O)CNC1=O (cyclo(AWLGTPN))
MIC [18]: 6 µg/mL | CC50 [19]: 11.6 µM | CC50 [20]: 14.1 µM | MIC [21]: 6 µg/mL

CC[C@H](C)[C@@H]1NC(=O)[C@@H]2CCCN2C(=O)[C@H](C(C)C)NC(=O)[C@H](C)NC(=O)CNC(=O)[C@@H]2CCCN2C(=O)[C@H](C)NC(=O)[C@H](Cc2ccc(O)cc2)NC1=O (cyclo(APGAVPIY))
IC50 [9]: 0.52 µM | IC50 [1]: 0.52 µM | CC50 at 3 h [2]: 6.72 µM | CC50 at 3 h [3]: 11.9 µM

CC(C)C[C@@H]1NC(=O)[C@H](C(C)C)NC(=O)[C@H](C(C)C)NC(=O)CNC(=O)[C@H](C)NC(=O)CNC(=O)[C@@H]2CCCN2C1=O (cyclo(AGVVLPG))
IC50 [1]: 0.73 µM

CC[C@H](C)[C@@H]1NC(=O)[C@@H]2CCCN2C(=O)CNC(=O)[C@H](C)NC(=O)[C@H](Cc2ccc(O)cc2)NC1=O (cyclo(AGPIY))
Activity [16]: <30% | Activity [17]: <30%

CC[C@H](C)[C@@H]1NC(=O)CNC(=O)[C@H](CCSC)NC(=O)CNC(=O)[C@@H]2CCCN2C(=O)[C@H](CC(C)C)NC(=O)[C@H](Cc2ccc(O)cc2)NC1=O (cyclo(GIYLPGM))
IC50 [9]: 16.5 µM | IC50 [1]: 16.5 µM
